Marks after values point to notes of the source that are not given here.
Columns and labels:
[1] = tested on: irritable bowel syndrome rats; experiment: Irritable bowel syndrome rats induced by early maternal separation; assay type: in vivo, SD rats; design: AWR scoring: scale not given here; settings: for Colon 5-HT / Serum 5-HT / AWR scoring: IBS rats; for 5-HT level in colon and serum, in words / AWR scoring, in words: compared with the model group
Description: The newborn SD male rats were separated from the mother rat in lactation period for 3 h every day on the 2nd to the 21st day after the birth of the newborn SD rats, namely, the mother rat in lactation period was taken out of the cage at 8:30 a.m., and then the newborn rats were removed from the initial cage and put to another separate cage, then the cage was transferred to an adjacent room, then the newborn rats were returned to the initial cage 3 h later, namely, at 11:30 such that the newborn rats and the mother rat got together; the newborn rats were weaned on the 22nd day after birth and separated from the initial cage on the 30th day, grouped on the 60th day, and administered, 20 d in total.
Intragastric administration was performed within the administration period once a day with continuous administration for 20 d.
Test indicators: abdominal withdrawal reflex (AWR); test method: rats were fasted 18 h before the experiment and drank water freely, and narcotized with diethyl ether; then an air sac coated with paraffin oil was inserted into the rats’ colorectum for 4.0 cm, and a catheter outside the anus was fixed at the root of the rat tail with an adhesive tape, and connected with an injection syringe and a sphygmomanometer via three links. The rats were put to an organic glass inspection box (20 cmx12 cm×9 cm), after the rats were awake and fully adapted to the environment for 30 min, the experiment was started. 20, 40 and 60 mm Hg of pressure were respectively applied on the rats, and continuous expansion was performed for 20 s each time with a stimulus interval of 4 min; each pressure was performed for 3 times repeatedly for AWR scoring.
At the end of the experiment, the animals were dissected and weighed, and narcotized to take blood, then the content of 5-HT in serum was determined by high performance liquid chromatography. […] slightly with 0.5% sodium carboxymethylcellulose, and then sucked dry with a filter paper, and placed into a cryogenic tube, and preserved at -20° C. for further use, […] chromatography.

[2] = molecular target: T1, recombinant human protein MAGL (Homo sapiens, UniProt Q99685); experiment: MAGL enzyme analysis (Cayman MAGL inhibitor screening kit); assay type: biochemical; settings: 4-nitrophenylacetic acid substrate, absorbance 410 nm, read-out: MAGLXIC50
T1 construct: purchased Cayman
T1 sequence (Q99685 1-303): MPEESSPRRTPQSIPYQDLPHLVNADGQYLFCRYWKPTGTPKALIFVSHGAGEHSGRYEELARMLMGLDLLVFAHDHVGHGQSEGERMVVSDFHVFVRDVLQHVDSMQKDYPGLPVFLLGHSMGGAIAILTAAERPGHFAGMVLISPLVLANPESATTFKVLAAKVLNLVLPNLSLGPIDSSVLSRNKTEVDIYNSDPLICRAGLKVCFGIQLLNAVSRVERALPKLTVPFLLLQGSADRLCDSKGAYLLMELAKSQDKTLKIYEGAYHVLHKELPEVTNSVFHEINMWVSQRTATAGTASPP
Description: 150 µL 1Xassay buffer, 10 µL recombinant human protein MAGL and 10 µL different concentrations of MAGL inhibitors (six points within 1 nM to 1000 nM) were added to per well of a 96-well plate. JZL195 (a positive control inhibitor) served as a positive control well, after incubation for 5 min at room temperature, per well was added with 10 µL MAGL substrate, and […] were vibrated for 10 s and placed for 10 min at room temperature, then an absorbance was detected at 410 nm. […] Graphad Prism 5.0 was taken to calculate IC50 curves fitting each inhibitor.

[3] = tested on: mice tail suspension test; experiment: Mice tail suspension test; assay type: in vivo, ICR mice; settings: final 4 min of 6 min, 5 mg/kg intragastric once per day 10 d
Description: (§1) Male ICR mice having a body weight of 18-22 g. The animals were active on a schedule of normal illumination for 12 h and in the dark for 12 h. Environmental temperature and relative humidity were relatively kept for 22±1° C. and 55±5%.
(§2) There were 7 groups of laboratory mice, 10 pieces each group, set as a control group (normal saline), a positive control group (fluoxetine hydrochloride capsule, 5 mg/kg), 5 MAGLZ-II series of administration treatment groups: MAGLZ-II-06, MAGLZ-II-07, MAGLZ-II-11, MAGLZ-II-17 and MAGLZ-II-18, respectively, with an administration concentration of 5 mg/kg.
(§3) All medicaments were used once per day via intragastric administration with a dose of 20 mL/kg (body weight), lasting for 10 d. 1 h later after the final administration, the detection of animal behaviors was started.
The tail suspension test (TST) was performed by the method established by Porsolt, et al. (Porsolt R D, Le Pichon M, Jalfre M. Depression: a new animal model sensitive to antidepressant treatments[J]. Nature, 1977, 266(5604):730-732). Mice were respectively suspended on the tail portions with tail suspension clamps at a distance of 10 mm away from the tail portion of the box (250 mm×250 mm×300 mm) and a distance of 5 cm where the head of each mouse was away from the bottom portion. Noise was tested in a dark room having minimum background, and each mouse was suspended for 6 min, and an immobility time was recorded at intervals in the final 4 min. Judgment standard: the mice stopped struggling and kept still completely.
(§4) All data are shown by x̅±SD, and the comparison among groups is analyzed by one-way variance.

[4] = tested on: mice forced swimming test; experiment: Mice forced swimming test; assay type: in vivo, ICR mice; settings: forced swimming, 6 min; 5 mg/kg intragastric once per day 10 d, 1 h after final administration
Description: as §1, §2, §3
Mice forced swimming test was performed according to the method established by Porsolt (Porsolt R D. Behavioural despair in mice: A primary screening test for antidepressants[J]. Arch. Int. Pharmacolodyn. 1977, 229). […] Each mouse was judged as still when stopped struggling, kept suspension in water and only made necessary movement to keep the head above the water.
as §4

[5] = Tissue distribution test in mice; assay type: in vivo; design: content in the brain (tissue distribution): unit not given here; settings: 16 mg/kg subcutaneous injection
[6] = high dose 30 mg/kg ig 20 d, 20 mm Hg
[7] = high dose 30 mg/kg ig 20 d, 40 mm Hg
[8] = high dose 30 mg/kg ig 20 d, 60 mm Hg
[9] = low dose 7.5 mg/kg ig 20 d, 20 mm Hg
[10] = low dose 7.5 mg/kg ig 20 d, 40 mm Hg
[11] = low dose 7.5 mg/kg ig 20 d, 60 mm Hg
[12] = middle dose 15 mg/kg ig 20 d, 20 mm Hg
[13] = middle dose 15 mg/kg ig 20 d, 40 mm Hg
[14] = middle dose 15 mg/kg ig 20 d, 60 mm Hg

Compound	Colon 5-HT ([1]; high dose 30 mg/kg ig 20 d)	Serum 5-HT ([1]; high dose 30 mg/kg ig 20 d)	AWR scoring [1, 6]	AWR scoring [1, 7]	AWR scoring [1, 8]	Colon 5-HT ([1]; low dose 7.5 mg/kg ig 20 d)	Serum 5-HT ([1]; low dose 7.5 mg/kg ig 20 d)	AWR scoring [1, 9]	AWR scoring [1, 10]	AWR scoring [1, 11]	Colon 5-HT ([1]; middle dose 15 mg/kg ig 20 d)	Serum 5-HT ([1]; middle dose 15 mg/kg ig 20 d)	AWR scoring [1, 12]	AWR scoring [1, 13]	AWR scoring [1, 14]	IC50 [2] [µM]	5-HT level in colon and serum, in words [1]	AWR scoring, in words [1]	Accumulated immobility time [3] [S]	Accumulated immobility time [4] [S]	further results
O=C(Nc1ccc(Cl)cc1)C1CCN(C(=O)c2ccc(O)cc2)CC1 [MAGLZ-II-10]	18.66±2.38^∗ µg/mg	33.09±2.31^∗ µg/ml	2.89±0.46	3.21±0.35^∗	3.65±0.17^∗	21.44 ± 2.72 µg/mg	36.32 ± 3.14 µg/mL	2.87±0.39	3.43±0.30	3.79±0.20	20.97 ± 2.24 µg/mg	38.65 ± 2.68 µg/mL	2.83±0.47	3.56±0.22	3.80±0.17	–	–	–	–	–	–
O=C(Nc1cccc(Cl)c1)C1CCN(C(=O)c2cc(O)ccc2F)CC1 [MAGLZ-II-11 (a)]	12.65±3.36^∗∗∗ µg/mg	24.05±6.17^∗∗∗ µg/ml	1.23±0.50^∗∗ ∗	2.13±0.48^∗∗∗	2.87±0.46^∗∗∗	16.33±2.78^∗∗ µg/mg	31.76±5.42^∗∗ µg/ml	2.12±0.36^∗∗ ∗	3.02±0.53^∗	3.58±0.26^∗∗	14.79±2.73^∗∗∗ µg/mg	29.89±5.34^∗∗∗ µg/ml	1.51±0.43^∗∗ ∗	2.52±0.38^∗∗∗	3.27±0.48^∗∗∗	2.15	significantly decrease	significantly decrease	–	–	–
O=C(Nc1cccc(Cl)c1)C1CCN(C(=O)c2cccc(O)c2)CC1 [MAGLZ-II-11]	12.00±2.93^∗∗∗ µg/mg	23.82±6.34^∗∗∗ µg/ml	1.39±0.30^∗∗ ∗	1.92±0.33^∗∗∗	2.86±0.26^∗∗∗	16.24±2.34^∗∗ µg/mg	31.75±5.33^∗∗ µg/ml	2.50±0.38^∗	3.00±0.49^∗∗	3.60±0.22^∗∗	14.33±2.10^∗∗∗ µg/mg	29.47±4.91^∗∗∗ µg/ml	2.02±0.57^∗∗	2.42±0.41^∗∗∗	3.03±0.37^∗∗∗	0.096	significantly decrease	significantly decrease	72.81±23.49	73.57±27.28	content in the brain, ranking of the test substances [5]: lowest; content in the brain (tissue distribution) ([5]; 1.0 h): 0; content in the brain (tissue distribution) ([5]; 2.0 h): 1.6; content in the brain (tissue distribution) ([5]; 5.0 h): 1.3
O=C(Nc1cccc(Cl)c1)C1CCN(C(=O)c2cc3cc(F)ccc3[nH]2)CC1 [MAGLZ-II-18 (a)]	13.90 ± 1.13 µg/mg	29.44 ± 4.37 µg/mL	1.96±0.46** *	2.60±0.58	3.00±0.54	16.43 ± 2.15 µg/mg	32.51 ± 5.01 µg/mL	2.58±0.26	3.06±0.38	3.50±0.29	14.64 ± 2.17 µg/mg	30.20 ± 5.59 µg/mL	2.35±0.40	3.02±0.51	3.39±0.34	2.15	significantly decrease	significantly decrease	–	–	–
Cn1c(C(=O)N2CCC(C(=O)Nc3cccc(Cl)c3)CC2)cc2ccccc21 [MAGLZ-II-18 (c)]	14.34±2.40^∗∗∗ µg/mg	29.03±5.29^∗∗∗ µg/ml	1.38±0.51^∗∗ ∗	2.20±0.57^∗∗∗	2.96±0.70^∗∗∗	16.84 ± 2.87 µg/mg	34.2 ± 5.37 µg/mL	2.28±0.58	3.20±0.43	3.61±0.24	14.99±2.90^∗∗ µg/mg	31.88±4.40^∗∗ µg/ml	1.79±0.23^∗∗ ∗	2.87±0.65^∗∗	3.27±0.51^∗∗	0.0026	significantly decrease	significantly decrease	–	–	–
O=C(Nc1cccc(Cl)c1)C1CCN(C(=O)c2cc3ccccc3[nH]2)CC1 [MAGLZ-II-18]	14.33±2.10^∗∗∗ µg/mg	30.86±5.28^∗∗∗ µg/ml	1.87±0.36^∗∗ ∗	2.6±0.54^∗∗∗	3.09±0.34^∗∗∗	21.91 ± 2.46 µg/mg	35.73 ± 3.32 µg/mL	2.59±0.33	3.26±0.39	3.65±0.23^∗	14.89±3.19^∗∗ µg/mg	29.12±7.05^∗∗ µg/ml	2.29±0.36^∗∗	3.01±0.40^∗∗	3.3±0.45^∗∗	0.67	significantly decrease	significantly decrease	79.68±25.72	81.71±38.12	–

From patent publication US20230090255A1, “MAGL INHIBITOR, PREPARATION METHOD THEREFOR AND USE THEREOF” (LUNAN PHARMACEUTICAL GROUP CORPORATION, priority 2019, published 2023)
